Experiments:
bedstraw = assay: Test B pre/postemergence bedstraw; format: in vivo, Galium aparine; conditions: Preemergence
Outline: (§1)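 Response is a visual 0-to-10 score relative to untreated plants, where 0 means no effect and 10 means complete control, taken twelve to sixteen days after application. Treatments went onto soil at planting and onto foliage of 1- to 4-leaf plants, using a surfactant-containing non-phytotoxic solvent.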

blackgrass = assay: Test B pre/postemergence blackgrass; format: in vivo, Alopecurus myosuroides; conditions: for Blackgrass plant response rating: scale of 0 to 10 where 0 is no effect and 10 is complete control
Outline: as §1

surinam grass = assay: Test B pre/postemergence surinam grass; format: in vivo, Brachiaria decumbens; conditions: for B. signalgrass plant response rating: scale of 0 to 10 where 0 is no effect and 10 is complete control
Outline: as §1

cocklebur = assay: Test B pre/postemergence cocklebur; format: in vivo, Xanthium strumarium; conditions: for Cocklebur plant response rating: scale of 0 to 10 where 0 is no effect and 10 is complete control
Outline: as §1

corn = assay: Test B pre/postemergence corn; format: in vivo, Zea mays; conditions: for Corn plant response rating: scale of 0 to 10 where 0 is no effect and 10 is complete control
Outline: as §1

crabgrass = assay: Test B pre/postemergence crabgrass; format: in vivo, Digitaria sanguinalis; conditions: for Crabgrass plant response rating: scale of 0 to 10 where 0 is no effect and 10 is complete control
Outline: as §1

pigweed = assay: Test B pre/postemergence pigweed; format: in vivo, Amaranthus retroflexus; conditions: for Redroot pigweed plant response rating: scale of 0 to 10 where 0 is no effect and 10 is complete control
Outline: as §1

rape = assay: Test B pre/postemergence rape; format: in vivo, Brassica napus; conditions: for Rape plant response rating: scale of 0 to 10 where 0 is no effect and 10 is complete control
Outline: as §1

soybean = assay: Test B pre/postemergence soybean; format: in vivo, Glycine max; conditions: for Soybean plant response rating: scale of 0 to 10 where 0 is no effect and 10 is complete control
Outline: as §1

sugar beet = assay: Test B pre/postemergence sugar beet; format: in vivo, Beta vulgaris; conditions: for Sugarbeets plant response rating: scale of 0 to 10 where 0 is no effect and 10 is complete control
Outline: as §1

velvetleaf = assay: Test B pre/postemergence velvetleaf; format: in vivo, Abutilon theophrasti; conditions: for Velvetleaf plant response rating: scale of 0 to 10 where 0 is no effect and 10 is complete control
Outline: as §1

wheat = assay: Test B pre/postemergence wheat; format: in vivo, Triticum aestivum; conditions: for Wheat plant response rating: scale of 0 to 10 where 0 is no effect and 10 is complete control
Outline: as §1

wild oat = assay: Test B pre/postemergence wild oat; format: in vivo, Avena fatua; conditions: for Wild oats plant response rating: scale of 0 to 10 where 0 is no effect and 10 is complete control
Outline: as §1

purple nutsedge = assay: Test B pre/postemergence purple nutsedge; format: in vivo, Cyperus rotundus; conditions: for Nutsedge plant response rating: scale of 0 to 10 where 0 is no effect and 10 is complete control
Outline: as §1

smallflower flatsedge = assay: Test B flood test smallflower flatsedge; format: in vivo, Cyperus difformis
Outline: (§2)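 Each value is a visual injury score relative to controls, with 10 meaning complete control and 0 no effect. Evaluation took place twelve to sixteen days after the 2-leaf-stage plants were treated and kept in the greenhouse.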

bamyardgrass = assay: Test B flood test barnyardgrass; format: in vivo, Echinochloa crus-galli
Outline: as §2

[1] = Postemergence, Rate 125 g/ha, scale 0 to 10, 0 is no effect, 10 is complete control
[2] = Postemergence, Rate 250 g/ha, scale 0 to 10, 0 is no effect, 10 is complete control
[3] = Preemergence, Rate 62 g/ha, scale 0 to 10 (0 no effect, 10 complete control)
[4] = Rate 500 g/ha, Postemergence, scale 0 to 10, 0 no effect, 10 complete control
[5] = Rate 62 g/ha, flood test species, Pre-emergence, visual evaluation after twelve to sixteen days
[6] = Rate 125 g/ha, under heading Pre-emergence, flood test species, visual evaluation after twelve to sixteen days
[7] = Rate 250 g/ha, Pre-emergence, flood-test species, scale 0 to 10, 0 is no effect, 10 is complete control
[8] = Rate 500 g/ha, Pre-emergence, flood test species, scale 0 to 10 (0 no effect, 10 complete control)

Cc1nsc(Cl)c1Cn1c(=O)on(C(=O)N(c2ccc(F)cc2)C(C)C)c1=O [Compound 373]
10: Crabgrass plant response rating (crabgrass; Preemergence, Rate 250 g/ha) | Crabgrass plant response rating (crabgrass; Preemergence, Rate 500 g/ha) | Redroot pigweed plant response rating (pigweed; Preemergence, Rate 500 g/ha)
3: Blackgrass plant response rating (0 to 10 scale) (blackgrass; Preemergence, Rate 125 g/ha) | Corn plant response rating (corn; Preemergence, Rate 250 g/ha) | Corn plant response rating (corn; Preemergence, Rate 500 g/ha) | Plant response rating, Redroot pigweed (pigweed; [1]) | Redroot pigweed plant response rating (0 to 10 scale) (pigweed; Preemergence, Rate 125 g/ha) | Plant response rating, Soybean (soybean; [1]) | Soybean plant response rating (soybean; Rate 62 g/ha, Postemergence)
7: Blackgrass plant response rating (blackgrass; Preemergence, Rate 500 g/ha) | Crabgrass plant response rating (0 to 10 scale) (crabgrass; Preemergence, Rate 125 g/ha) | Redroot pigweed plant response rating (pigweed; Preemergence, Rate 250 g/ha) | Sugarbeets plant response rating (sugar beet; Preemergence, Rate 500 g/ha)
1: Plant response rating, Blackgrass (blackgrass; [3]) | Plant response rating, Cocklebur (cocklebur; [1]) | Plant response rating, Crabgrass (crabgrass; [2]) | Plant response rating, Rape (rape; [1]) | Plant response rating, Sugarbeets (sugar beet; [2]) | Plant response rating, Velvetleaf (velvetleaf; [2])
6: Plant response rating, Redroot pigweed (pigweed; [4])
2: B. signalgrass plant response rating (surinam grass; Preemergence, Rate 500 g/ha) | Plant response rating, Cocklebur (cocklebur; [2]) | Plant response rating, Cocklebur (cocklebur; [4]) | Plant response rating, Crabgrass (crabgrass; [4]) | Redroot pigweed plant response rating (pigweed; Rate 62 g/ha, Postemergence) | Plant response rating, Rape (rape; [2]) | Soybean plant response rating (soybean; Preemergence, Rate 500 g/ha) | Plant response rating, Velvetleaf (velvetleaf; [4])
4: Plant response rating, Crabgrass (crabgrass; [3]) | Plant response rating, Redroot pigweed (pigweed; [2]) | Plant response rating, Soybean (soybean; [2]) | Plant response rating, Soybean (soybean; [4]) | Sugarbeets plant response rating (sugar beet; Preemergence, Rate 250 g/ha) | Plant response rating, Sugarbeets (sugar beet; [4])
5: Blackgrass plant response rating (blackgrass; Preemergence, Rate 250 g/ha) | Plant response rating, Rape (rape; [4])
0: Plant response rating, Bedstraw (bedstraw; Rate 62 g/ha, scale 0 to 10 (0 no effect, 10 complete control)) | Bedstraw plant response rating (0 to 10 scale) (bedstraw; Rate 125 g/ha) | Bedstraw plant response rating (bedstraw; Rate 500 g/ha, scale of 0 to 10 where 0 is no effect and 10 is complete control) | Plant response rating, Blackgrass (blackgrass; [1]) | Plant response rating, Blackgrass (blackgrass; [2]) | Blackgrass plant response rating (blackgrass; Rate 62 g/ha, Postemergence) | Plant response rating, Blackgrass (blackgrass; [4]) | Plant response rating, B. signalgrass (surinam grass; [1]) | Plant response rating, B. signalgrass (surinam grass; [2]) | Plant response rating, B. signalgrass (surinam grass; [3]) | B. signalgrass plant response rating (0 to 10 scale, 0 is no effect, 10 is complete control) (surinam grass; Preemergence, Rate 125 g/ha) | B. signalgrass plant response rating (surinam grass; Preemergence, Rate 250 g/ha) | B. signalgrass plant response rating (surinam grass; Rate 62 g/ha, Postemergence) | Plant response rating, B. signalgrass (surinam grass; [4]) | Plant response rating, Cocklebur (cocklebur; [3]) | Cocklebur plant response rating (0 to 10 scale) (cocklebur; Preemergence, Rate 125 g/ha) | Cocklebur plant response rating (cocklebur; Preemergence, Rate 250 g/ha) | Cocklebur plant response rating (cocklebur; Preemergence, Rate 500 g/ha) | Cocklebur plant response rating (cocklebur; Rate 62 g/ha, Postemergence) | Plant response rating, Corn (corn; [1]) | Plant response rating, Corn (corn; [2]) | Plant response rating, Corn (corn; [3]) | Corn plant response rating (0 to 10 scale) (corn; Preemergence, Rate 125 g/ha) | Corn plant response rating (corn; Rate 62 g/ha, Postemergence) | Plant response rating, Corn (corn; [4]) | Plant response rating, Crabgrass (crabgrass; [1]) | Crabgrass plant response rating (crabgrass; Rate 62 g/ha, Postemergence) | Plant response rating, Redroot pigweed (pigweed; [3]) | Plant response rating, Rape (rape; [3]) | Rape plant response rating (0 to 10 scale) (rape; Preemergence, Rate 125 g/ha) | Rape plant response rating (rape; Preemergence, Rate 250 g/ha) | Rape plant response rating (rape; Rate 62 g/ha, Postemergence) | Plant response rating, Soybean (soybean; [3]) | Soybean plant response rating (0 to 10 scale) (soybean; Preemergence, Rate 125 g/ha) | Soybean plant response rating (soybean; Preemergence, Rate 250 g/ha) | Plant response rating, Sugarbeets (sugar beet; [1]) | Plant response rating, Sugarbeets (sugar beet; [3]) | Sugarbeets plant response rating (0 to 10 scale) (sugar beet; Preemergence, Rate 125 g/ha) | Sugarbeets plant response rating (sugar beet; Rate 62 g/ha, Postemergence) | Plant response rating, Velvetleaf (velvetleaf; [1]) | Plant response rating, Velvetleaf (velvetleaf; [3]) | Velvetleaf plant response rating (0 to 10 scale) (velvetleaf; Preemergence, Rate 125 g/ha) | Velvetleaf plant response rating (velvetleaf; Preemergence, Rate 250 g/ha) | Velvetleaf plant response rating (velvetleaf; Preemergence, Rate 500 g/ha) | Velvetleaf plant response rating (velvetleaf; Rate 62 g/ha, Postemergence) | Plant response rating, Wheat (wheat; [1]) | Plant response rating, Wheat (wheat; [2]) | Plant response rating, Wheat (wheat; [3]) | Wheat plant response rating (0 to 10 scale) (wheat; Preemergence, Rate 125 g/ha) | Wheat plant response rating (wheat; Preemergence, Rate 250 g/ha) | Wheat plant response rating (wheat; Preemergence, Rate 500 g/ha) | Wheat plant response rating (wheat; Rate 62 g/ha, Postemergence) | Plant response rating, Wheat (wheat; [4]) | Plant response rating, Wild oats (wild oat; [1]) | Plant response rating, Wild oats (wild oat; [2]) | Plant response rating, Wild oats (wild oat; [3]) | Wild oats plant response rating (0 to 10 scale) (wild oat; Preemergence, Rate 125 g/ha) | Wild oats plant response rating (wild oat; Preemergence, Rate 250 g/ha) | Wild oats plant response rating (wild oat; Preemergence, Rate 500 g/ha) | Wild oats plant response rating (wild oat; Rate 62 g/ha, Postemergence) | Plant response rating, Wild oats (wild oat; [4]) | Plant response rating, Nutsedge (purple nutsedge; [1]) | Plant response rating, Nutsedge (purple nutsedge; [2]) | Plant response rating, Nutsedge (purple nutsedge; [3]) | Nutsedge plant response rating (0 to 10 scale) (purple nutsedge; Preemergence, Rate 125 g/ha) | Nutsedge plant response rating (purple nutsedge; Preemergence, Rate 250 g/ha) | Nutsedge plant response rating (purple nutsedge; Preemergence, Rate 500 g/ha) | Nutsedge plant response rating (purple nutsedge; Rate 62 g/ha, Postemergence) | Plant response rating, Nutsedge (purple nutsedge; [4]) | Plant response rating, S. Flatsedge (0 to 10 scale, 0 is no effect, 10 is complete control) (smallflower flatsedge; [5]) | S. Flatsedge plant response rating (0 to 10 scale, 0 is no effect, 10 is complete control) (smallflower flatsedge; [6]) | S. Flatsedge plant response rating (smallflower flatsedge; [7]) | S. Flatsedge plant response rating (smallflower flatsedge; [8]) | Plant response rating, Barnyardgrass (0 to 10 scale, 0 is no effect, 10 is complete control) (bamyardgrass; [5]) | Barnyardgrass plant response rating (0 to 10 scale, 0 is no effect, 10 is complete control) (bamyardgrass; [6]) | Barnyardgrass plant response rating (bamyardgrass; [7]) | Barnyardgrass plant response rating (bamyardgrass; [8])
